In patent US20120172302A1, “COMPOSITION FOR THE TREATMENT OF BENIGN PROSTATE HYPERPLASIA” (priority 2009, published 2012):
Square brackets hold non-standard residues; d marks the D form. Peptide text beside a SMILES is read from it. * marks the point of attachment. dPhe(4-NHCONH2) = NC(=O)Nc1ccc(C[C@@H](N)C(=O)O)cc1; Dihydroorotyl(S) = O=C1C[C@@H](C(=O)*)NC(=O)N1; dPhe(4-Cl) = N[C@H](Cc1ccc(Cl)cc1)C(=O)O; Phe(4-NH2) = Nc1ccc(C[C@H](N)C(=O)O)cc1; d2Nal = N[C@H](Cc1ccc2ccccc2c1)C(=O)O; Lys(iPr) = CC(C)NCCCC[C@H](N)C(=O)O; d3Pal = N[C@H](Cc1cccnc1)C(=O)O

System: patients with BPH
Assay: International Prostate Symptom Score (IPSS) questionnaire, clinical trial in BPH patients
Format: in vivo, men
Conditions: for Improvements in mean sum of IPSS scores: 9 and 12 months follow-up
Description: For each patient, the following parameters were measured or assessed (using the methods discussed below), at time points of screening (e.g. −7 days) day 0 (“baseline”), day 14, day 28 and day 42:
After the initial 6-week treatment period of the exploratory study had been completed, a 12-month follow-up period looking at long-term efficacy commenced. Interim data of the main efficacy variables (IPSS, IPSS Global QoL, prostate volume, urinary flow, and post-void residual volume—measured as set out below) after 6 months' follow-up are also presented herein Table 1, 2, 3 FIG. 1b), together with some IPSS data at 9 and 12 months (FIG. 1b).
The IPSS was developed in 1991 by the American Urological Association to assess the severity of urinary symptoms related to BPH (Barry, M. J., et al., The American Urological Association symptom index for benign prostatic hyperplasia. The Measurement Committee of the American Urological Association. J Urol, 1992. 148(5): p. 1549-57; discussion 1564). It has been widely used in clinical studies, has undergone extensive validation and its psychometric properties are well documented in both the original version (containing a 1-month recall) as well as the ‘acute’ version used in this study (containing a one-week recall). The WHO has recommended the use of this instrument for the evaluation of BPH and it is considered to be the internationally accepted, standard questionnaire for assessing lower urinary tract symptoms.
The patients were asked to complete the IPSS questionnaire to evaluate their urinary symptoms. The IPSS is a patient-administered questionnaire containing seven items to evaluate symptoms of urinary obstruction (incomplete emptying, frequency, hesitancy, urgency, weak stream, straining, nocturia) over the preceding week. Each urinary symptom question is assigned points from 0 to 5 indicating increasing severity of the particular symptom. The total score can therefore range from 0 to 35 (0-7: mildly symptomatic; 8-19: moderately symptomatic; 20-35: severely symptomatic). A reduction in score over the treatment is indicative of improvement.

[1] = Day 42, all treatment groups combined
[2] = Month 6 follow up, 32 mg group, n=7
[3] = Month 6 follow up, 64 mg group, n=4

## CC(=O)N[C@H](Cc1ccc2ccccc2c1)C(=O)N[C@H](Cc1ccc(Cl)cc1)C(=O)N[C@H](Cc1cccnc1)C(=O)N[C@@H](CO)C(=O)N[C@@H](Cc1ccc(NC(=O)[C@@H]2CC(=O)NC(=O)N2)cc1)C(=O)N[C@H](Cc1ccc(NC(N)=O)cc1)C(=O)N[C@@H](CC(C)C)C(=O)N[C@@H](CCCCNC(C)C)C(=O)N1CCC[C@H]1C(=O)N[C@H](C)C(N)=O [Degarelix, D-Alaninamide, N-acetyl-3-(2-naphthalenyl)-D-alanyl-4-chloro-D-phenylalanyl-3-(3-pyridinyl)-D-alanyl-L-seryl-4-[[[(4S)-hexahydro-2,6-dioxo-4-pyrimidinyl]carbonyl]amino]-L-phenylalanyl-4-[(aminocarbonyl)amino]-D-phenylalanyl-L leucyl-N6-(1-methylethyl)-L-lysyl-L-prolyl] (Ac-[d2Nal][dPhe(4-Cl)][d3Pal]S[Phe(4-NH2)](Dihydroorotyl(S))[dPhe(4-NHCONH2)]L[Lys(iPr)]P[dA]-NH2)
32 mg dose, 28 and 42 day timepoints (FIG. 1c)
  IPSS Q1 (incomplete emptying), Q2 (frequency), Q4 (urgency) score, change from baseline: pronounced effect
32 mg group (FIG. 1b)
  Improvements in mean sum of IPSS scores: still indicated
32+32 mg group (FIG. 1b)
  Improvements in mean sum of IPSS scores: still indicated
Baseline of 6 month follow up patients, 32 mg group, n=7
  Mean IPSS score: 22.0 (n = 7)
Baseline of 6 month follow up patients, 64 mg group, n=4
  Mean IPSS score: 20.0 (n = 4)
Baseline of 6 month follow up patients, 16+16 mg group, n=6
  Mean IPSS score: 18.8 (n = 6)
Baseline of 6 month follow up patients, 32+32 mg group, n=7
  Mean IPSS score: 19.3 (n = 7)
Baseline, 32 mg group (one s.c. injection Day 0), N=12
  Mean IPSS score: 22.3 (6.5)
Baseline, 64 mg group (one s.c. injection Day 0), N=13
  Mean IPSS score: 21.8 (6.2)
Baseline, 16+16 mg group (16 mg s.c. Day 0 and Day 14), N=13
  Mean IPSS score: 17.7 (4.5)
Baseline, 32+32 mg group (32 mg s.c. Day 0 and Day 14), N=12
  Mean IPSS score: 18.2 (5.4)
Day 14, 32 mg group
  IPSS mean change from baseline: −7.8 (8.7)
Day 14, 64 mg group
  IPSS mean change from baseline: −8.0 (4.0)
Day 14, 16+16 mg group
  IPSS mean change from baseline: −3.2 (5.4)
Day 14, 32+32 mg group
  IPSS mean change from baseline: −5.5 (5.0)
Day 42, 32 mg group
  IPSS mean change from baseline: −13.2 (6.6)
  Mean IPSS score: 9.1 (6.2)
  Number of patients in IPSS category "severe": 1 patients
  Percentage responders (decrease in IPSS of at least 30% vs baseline): 92%
Day 42, 64 mg group
  IPSS mean change from baseline: −10.0 (5.0)
  Mean IPSS score: 11.8 (5.9)
  Number of patients in IPSS category "severe": 1 patients
  Percentage responders (decrease in IPSS of at least 30% vs baseline): 85%
Day 42, 64 mg group, listed as degarelix
  IPSS mean change from baseline: −10.0 (SD=5.0)
Day 42, 16+16 mg group
  IPSS mean change from baseline: −6.1 (4.6)
  Mean IPSS score: 11.6 (4.5)
  Percentage responders (decrease in IPSS of at least 30% vs baseline): 54%
Day 42, 16+16 mg group, listed as degarelix
  IPSS mean change from baseline: −6.1 (SD=4.6)
Day 42, 32+32 mg group
  IPSS mean change from baseline: −9.6 (4.7)
  Mean IPSS score: 8.6 (5.7)
  Percentage responders (decrease in IPSS of at least 30% vs baseline): 83%
Day 42, 32+32 mg group, listed as degarelix
  IPSS mean change from baseline: −9.6 (SD=4.7)
[1]
  Number of patients in IPSS category "mild": 17 patients
  Number of patients in IPSS category "moderate": 31 patients
  Number of patients in IPSS category "severe": 2 patients
[2]
  IPSS mean change from baseline: −11.6 (8.3)
  Mean IPSS score: 10.4 (6.3)
  Percentage responders (decrease in IPSS of at least 30% vs baseline): 86%
[3]
  IPSS mean change from baseline: −4.0 (3.6)
  Mean IPSS score: 16.0 (8.7)
  Percentage responders (decrease in IPSS of at least 30% vs baseline): 5%
